This is an account of results in publication PMC11025371, “Alcohols as inhibitors of ammonia oxidizing archaea and bacteria” (FEMS Microbiology Letters, 2023).

The subject of data set [1] is ‘Ca. N. franklandus’ C13. Description: Whole-cell activity assay, inhibition of ammonia oxidation (nitrite accumulation from 500 µM NH4Cl). As to conditions: for Lowest fully inhibitory concentration (I) for ammonia oxidation / IC50: 37°C; for Lowest fully inhibitory concentration (I) for ammonia oxidation: full inhibition = lack of sustained nitrite accumulation; for IC50: nitrite accumulation over 1 h, read-out: Half-maximal inhibitory concentration (IC50) of ammonia oxidation. The data set is classed as cell-based, ‘Candidatus Nitrosocosmicus franklandus’ C13. Here is the method:
(§1) Nitrosomonas europaea and ‘Ca. N. franklandus’ C13 cells were harvested at mid-exponential phase (∼800 µM NO2^− accumulated) by filtration onto 0.22 µm pore-size membrane filter (PES, Merck Millipore). Cells were then washed and resuspended in FWM salts (i.e. FWM without added NH4Cl and other medium components as described above) buffered with 10 mM HEPES buffer (pH 7). Cells were incubated at 28°C for N. europaea and 37°C for ‘Ca. N. franklandus’ C13 for ∼1 h until endogenous respiration ceased.
(§2) Although these alcohols were added at concentrations above their solubility for the consistency of the experimental design, the limit of solubility was considered when evaluating the results. Reactions were initiated by addition of 500 µM NH4Cl or 200 µM NH2OH. Vials containing N. europaea and ‘Ca. Nitrosocosmicus franklandus’ C13 cells were incubated at 28°C and 37°C, respectively. The activity of cultures was followed by monitoring nitrite accumulation over 1 h, measured in 15 min intervals using Griess reagent in a 96-well plate format as previously described (Lehtovirta-Morley et al. [2014]). The final cell concentration in the activity assays was ∼10^7 cells ml^−1 for both N. europaea and ‘Ca. N. franklandus’ C13, which equate to ∼1.2 and 5.55 µg protein ml^−1, respectively. Cell counts were performed as previously described (Oudova-Rivera et al. [2023]). Protein concentrations were determined using a Pierce bicinchoninic acid (BCA) protein assay kit (Thermo Scientific) according to the manufacturer instructions. One-way ANOVA with LSD post-hoc tests were performed using SPSS statistics software version 27 (IBM).
The reaction velocity of ammonia and hydroxylamine oxidation was determined by measuring the rate of nitrite accumulation over time (µM min^−1). […] The half-maximal inhibitory concentration (IC50) was calculated from the slope and y-axis intercept over the linear part of the curve following the formula: […]
(§3) Inhibition by alcohols was tested at a fixed substrate concentration of 500 µM NH4Cl or 200 µM hydroxylamine for both N. europaea and ‘Ca. N. franklandus’ C13. Ammonia and hydroxylamine concentrations were selected based on previously published Km values and activity assays (Suzuki et al. [1974], Martens-Habbena et al. [2009], Oudova-Rivera et al. [2023]). Fully inhibitory concentrations of alcohols were determined experimentally with a series of activity assays, gradually narrowing down the range of alcohol concentrations applied. Full inhibition was defined as a lack of sustained nitrite accumulation, where there was either no nitrite accumulation at all, or where a minor accumulation of nitrite was initially detected but ceased (potentially due to a delayed effect of the inhibitor).
(§4) Inhibition of ammonia oxidation was tested using whole-cell activity assays with the concentration of alcohols ranging from 2 to 100 mM and fixed substrate ammonia concentration of 500 µM NH4Cl. […] Because hydroxylamine, the product of ammonia oxidation, is a pathway intermediate downstream of AMO, any inhibitors specific to AMO should not interfere with hydroxylamine oxidation.

For data set [2], the system named is N. europaea. The description is as above. As to conditions: 28°C; for Lowest fully inhibitory concentration (I) for ammonia oxidation: full inhibition = lack of sustained nitrite accumulation; for IC50: nitrite accumulation over 1 h, read-out: Half-maximal inhibitory concentration (IC50) of ammonia oxidation. The data set is classed as cell-based, Nitrosomonas europaea. Here is the method:
as §1
as §2, with “. Although” for “Although”
The reaction velocity of ammonia and hydroxylamine oxidation was determined by measuring the rate of nitrite accumulation over time (µM min^−1). The logarithm of the reaction velocity, calculated as a percentage of the non-inhibited control, was plotted against the inhibitor concentration resulting in a linear relationship (Figs. S1 and S2). The half-maximal inhibitory concentration (IC50) was calculated from the slope and y-axis intercept over the linear part of the curve following the formula: […]
as §3

For data set [3], the system named is ‘Ca. N. franklandus’ C13. Description: Whole-cell activity assay with hydroxylamine as substrate (specificity of AMO inhibition). The following applies: 200 µM hydroxylamine; for Rate of nitrite accumulation from hydroxylamine oxidation compared to the non-inhibited control: alcohol at its lowest concentration fully inhibitory to ammonia oxidation; for Specificity of inhibition to AMO (effect on hydroxylamine oxidation): fully inhibitory alcohol concentration. The data set is classed as cell-based, ‘Candidatus Nitrosocosmicus franklandus’ C13. Here is the method:
as §1, §2, §3, §4

Data set [4] concerns N. europaea. The description is as above. The data set is classed as cell-based, Nitrosomonas europaea. The following applies: 200 µM hydroxylamine; for Rate of nitrite accumulation from hydroxylamine oxidation compared to the control: alcohol at its lowest concentration fully inhibitory to ammonia oxidation; for Specificity of inhibition to AMO (effect on hydroxylamine oxidation): fully inhibitory alcohol concentration. Here is the method:
as §1, §2, §3, §4

A short description of a further data set: physchem. The following applies: water.
Data set [5] deals with N. europaea. More on the design: method as in Hooper and Terry [1973]. As to conditions: ref Hooper and Terry [1973]; cited from earlier work.

Each structure is given as a SMILES string. In brackets after ≈: the same amount, converted by molar mass. Entries after “also recorded” stand apart in the source; their conditions may differ. Read-outs that look alike come from different tables or passages of the source. Marks after values point to notes of the source that are not given here.

Turning to `CCCCCCCO` [Heptanol, 1-heptanol], the “Lowest fully inhibitory concentration (I) for ammonia oxidation” value (“Lowest fully inhibitory concentration” for short) in the data set on ‘Ca. N. franklandus’ C13 [1] and with N. europaea [2] was 17 mM each time. Moreover, the IC50 with ‘Ca. N. franklandus’ C13 [1] turned out to be 3.6 mM; in the data set with N. europaea [2] (Nitrosomonas europaea), 4.5 mM. Besides, in the data set on ‘Ca. N. franklandus’ C13 [3], the “Rate of nitrite accumulation from hydroxylamine oxidation compared to the non-inhibited control” value (shortened to “Rate … compared to the non-inhibited control”) is recorded as 10% ± 0.5%. For the same compound, the “Rate of nitrite accumulation from hydroxylamine oxidation compared to the control” value (“Rate … compared to the control” below) with N. europaea [4] is recorded as “no activity detected”. The concentration in solution in the data set “physchem” (solubility) was 17 mM (≈ 1980 µg/mL).
In the case of `CCCO` [1-Propanol, 1-propanol], in the data set with ‘Ca. N. franklandus’ C13 [1], the “Lowest fully inhibitory concentration” value is recorded as 20 mM and the IC50 worked out at 6.2 mM. In the data set on N. europaea [2], the “Lowest fully inhibitory concentration” value was found to be 100 mM and the IC50 came to 13.6 mM. For the same compound, the “Concentration giving maximal inhibition” value with N. europaea [5] is listed as 0.33 M.
On to `CCO` [Ethanol, ethanol], for which the “Lowest fully inhibitory concentration” value in the data set on ‘Ca. N. franklandus’ C13 [1] came to 80 mM; with N. europaea [2] it was 90 mM. Also, the IC50 was 7.2 mM with ‘Ca. N. franklandus’ C13 [1] and 20.9 mM in the data set with N. europaea [2]. For the same compound, the “Specificity of inhibition to AMO (effect on hydroxylamine oxidation)” value in the data set with ‘Ca. N. franklandus’ C13 [3] is listed as “did not interfere with hydroxylamine oxidation; also recorded: specific inhibitor; also recorded: specific inhibitors of the AMO”; with N. europaea [4], “specific inhibitor; also recorded: specific inhibitors of the AMO”.
For the compound `CCCCO` [Butanol, 1-butanol], in the data set on ‘Ca. N. franklandus’ C13 [1], the “Lowest fully inhibitory concentration” value is reported as 40 mM and the IC50 came to 4 mM. In addition, in the data set on N. europaea [2], the “Lowest fully inhibitory concentration” value stood at 100 mM and the IC50 came out at 7.6 mM. Besides, the “Rate … compared to the non-inhibited control” value with ‘Ca. N. franklandus’ C13 [3] is listed as 55% ±2.3%. In the data set on N. europaea [4], the “Rate … compared to the control” value is listed as 83% ± 1.8%.
For `CCCCCCO` [Hexanol, 1-hexanol], the “Lowest fully inhibitory concentration” value with ‘Ca. N. franklandus’ C13 [1] came out at 15 mM; in the data set with N. europaea [2], 20 mM. Also, the IC50 turned out to be 2.4 mM in the data set on ‘Ca. N. franklandus’ C13 [1] and 2.2 mM with N. europaea [2] (Nitrosomonas europaea). The “Rate … compared to the non-inhibited control” value with ‘Ca. N. franklandus’ C13 [3] is recorded as 13% ± 0.9%. Besides, in the data set on N. europaea [4], the “Rate … compared to the control” value is on record as 18% ± 5.6%.
As for `CC(C)O` [2-Propanol, 2-propanol], in the data set on ‘Ca. N. franklandus’ C13 [1], the “Lowest fully inhibitory concentration” value is recorded as 40 mM and the IC50 worked out at 26.8 mM. Moreover, in the data set on N. europaea [2], the “Lowest fully inhibitory concentration” value is 100 mM and the IC50 amounted to 32.6 mM. In addition, the “Concentration giving maximal inhibition” value in the data set with N. europaea [5] is given as 0.13 M.
As to `CCCCCCCCO` [Octanol, 1-octanol], the inhibition (commonly the drop in the measured response relative to a control, in per cent) at 2000 µM in the data set on ‘Ca. N. franklandus’ C13 [1] (2 mM octanol (limit of solubility)) was 39%. In addition, the “Lowest fully inhibitory concentration” value with ‘Ca. N. franklandus’ C13 [1] is recorded as 10** mM; in the data set on ‘Ca. N. franklandus’ C13 [1] (listed as octanol) it was 10 mM; in the data set on N. europaea [2] it was 20** mM. Also, the “Rate … compared to the non-inhibited control” value in the data set with ‘Ca. N. franklandus’ C13 [3] is 33% ± 1.4%. Moreover, the “Rate … compared to the control” value with N. europaea [4] is on record as “no activity detected”. In addition, the concentration in solution in “physchem” (solubility) came to 2 mM (≈ 260 µg/mL).
On to `CCCCCO` [Pentanol, 1-pentanol], for which the figures for the “Lowest fully inhibitory concentration” value in the data set on ‘Ca. N. franklandus’ C13 [1] and with N. europaea [2] were 20 mM and 100 mM, respectively. The IC50 with ‘Ca. N. franklandus’ C13 [1] was found to be 3.6 mM; with N. europaea [2] (Nitrosomonas europaea), 5.3 mM. Further, in the data set with ‘Ca. N. franklandus’ C13 [3], the “Rate … compared to the non-inhibited control” value was 53% ± 2.8%. Moreover, the “Rate … compared to the control” value with N. europaea [4] is 27% ± 2.6%.
On to `CO` [Methanol], for which the “Lowest fully inhibitory concentration” value in the data set on ‘Ca. N. franklandus’ C13 [1] amounted to 8 mM; with N. europaea [2] it was 10 mM. Also, the IC50 in the data set with ‘Ca. N. franklandus’ C13 [1] was 0.19 mM; in the data set on N. europaea [2], 0.31 mM. The “Rate … compared to the non-inhibited control” value with ‘Ca. N. franklandus’ C13 [3] is given as “not affected”. Besides, the entries for the “Specificity of inhibition to AMO (effect on hydroxylamine oxidation)” value in the data set on ‘Ca. N. franklandus’ C13 [3], in the data set on ‘Ca. N. franklandus’ C13 [3] (listed as methanol) and with N. europaea [4] were “specific inhibitors of the AMO”, “did not interfere with hydroxylamine oxidation” and “specific inhibitors of the AMO”, respectively.
